Experimental data from patent publication US20260083722A1, “BIFUNCTIONAL DEGRADERS COMPRISING ELECTROPHILIC PROTACS THAT ENGAGE DCAF1 AND PHARMACEUTICAL COMPOSITIONS COMPRISING THE SAME” (THE SCRIPPS RESEARCH INSTITUTE, priority 2022, published 2026).

Key:
[1] = target: T1, recombinant DCAF1-WT (a.a.'s 1046-1396) (Homo sapiens, UniProt Q9Y4B6); experiment: gel-ABPP with recombinant purified DCAF1-WT doped into HEK293T cell proteome; type: binding
T1 construct: form of DCAF1 containing the WD40 domain (amino acids (a.a.'s) 1046-1396); made in house
T1 sequence (Q9Y4B6 1046-1396): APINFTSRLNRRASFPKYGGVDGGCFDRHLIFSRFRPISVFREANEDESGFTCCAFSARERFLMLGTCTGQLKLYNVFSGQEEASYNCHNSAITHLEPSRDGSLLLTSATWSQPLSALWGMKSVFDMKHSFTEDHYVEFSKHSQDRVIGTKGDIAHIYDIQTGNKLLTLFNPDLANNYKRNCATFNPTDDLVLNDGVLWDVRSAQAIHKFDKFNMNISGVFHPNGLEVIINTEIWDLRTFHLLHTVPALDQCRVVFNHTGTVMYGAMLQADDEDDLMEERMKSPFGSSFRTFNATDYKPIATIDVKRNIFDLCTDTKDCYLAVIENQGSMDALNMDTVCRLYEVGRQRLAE
T1 sequence (Q16531 whole entry partner, the tested form may be a part): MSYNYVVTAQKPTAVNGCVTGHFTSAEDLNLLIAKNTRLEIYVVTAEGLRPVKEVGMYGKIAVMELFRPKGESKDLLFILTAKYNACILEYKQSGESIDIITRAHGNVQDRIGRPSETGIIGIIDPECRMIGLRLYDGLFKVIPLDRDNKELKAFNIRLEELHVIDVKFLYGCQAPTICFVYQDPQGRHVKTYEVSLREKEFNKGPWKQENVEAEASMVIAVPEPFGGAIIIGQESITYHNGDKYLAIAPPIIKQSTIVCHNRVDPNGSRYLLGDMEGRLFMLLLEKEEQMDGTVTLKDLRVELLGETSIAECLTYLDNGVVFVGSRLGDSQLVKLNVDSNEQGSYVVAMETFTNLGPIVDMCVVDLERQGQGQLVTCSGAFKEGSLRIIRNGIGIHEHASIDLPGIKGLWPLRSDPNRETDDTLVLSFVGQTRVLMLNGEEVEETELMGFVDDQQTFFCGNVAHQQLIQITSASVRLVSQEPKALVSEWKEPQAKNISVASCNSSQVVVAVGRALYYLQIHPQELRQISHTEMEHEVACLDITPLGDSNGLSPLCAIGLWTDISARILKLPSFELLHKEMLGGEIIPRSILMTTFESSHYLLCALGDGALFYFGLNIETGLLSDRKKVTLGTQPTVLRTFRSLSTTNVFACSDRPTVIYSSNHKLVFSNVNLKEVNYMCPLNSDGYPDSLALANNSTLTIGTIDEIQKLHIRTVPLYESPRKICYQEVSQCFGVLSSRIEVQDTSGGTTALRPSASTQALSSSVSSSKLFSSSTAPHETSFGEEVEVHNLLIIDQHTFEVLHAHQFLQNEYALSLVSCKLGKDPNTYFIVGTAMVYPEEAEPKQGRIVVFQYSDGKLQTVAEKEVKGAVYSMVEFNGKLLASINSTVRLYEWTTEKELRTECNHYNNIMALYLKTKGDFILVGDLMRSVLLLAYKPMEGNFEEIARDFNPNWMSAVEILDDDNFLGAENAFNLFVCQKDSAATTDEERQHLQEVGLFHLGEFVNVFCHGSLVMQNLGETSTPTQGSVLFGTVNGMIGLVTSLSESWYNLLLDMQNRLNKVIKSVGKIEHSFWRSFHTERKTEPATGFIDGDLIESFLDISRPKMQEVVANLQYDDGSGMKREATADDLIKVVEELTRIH
From the text: FIG. 2 that azetidine acrylamides stereo- and site-selectively engage recombinant DCAF1_C1113. (A) Domain map of DCAF1 with the region used for recombinant protein studies marked in a bracket (a.a.'s 1046-1396) and C1113 highlighted in red. (B) Crystal structure of a DCAF1-Vpx complex (pdb: 5AJA). DCAF1 (a.a.'s 1046-1396) is shown in cyan, Vpx is shown in yellow, and C1113, which is located at the DCAF1-Vpx interface is shown in red. (C) Structures of alkyne-modified azetidine acrylamides MY-11A (5) and MY-11B (6). (D) Gel-ABPP showing the concentration-dependent reactivity of MY-11A and MY-11B (1 h) reactivity with recombinant, purified DCAF1-WT or the DCAF1-C1113A mutant (0.06 μg/μL of DCAF1 protein per sample) doped into HEK293T cell proteome (1 μg/μL). MY-11A/B labeling of proteins was visualized by CuAAC conjugation to an azide-rhodamine tag followed by SDS-PAGE and in-gel fluorescence scanning. Results are from a single experiment representative of two independent experiments. (E) Gel-ABPP showing the concentration-dependent effects of MY-1A and MY-1B on MY-11B reactivity with DCAF1-WT. Samples were treated with MY-1A/B for 2 h, followed by MY-11B (25 μM, 1 h) and analyzed as described in (D). Left, quantification of data presented as mean values±SEM from two independent experiments. Right, representative gel-ABPP results. (D, E) Lower images are Coomassie blue-stained gels corresponding to ABPP gels shown in upper images.
(A) Structures of candidate electrophilic PROTACs YT41R (7), YT41S (8), YT47R (9), and YT47S (10). (B) Gel-ABPP showing the concentration-dependent effects of YT41R and YT47R on MY-11B reactivity with DCAF1-WT protein (0.06 μg/μL of DCAF1 protein per sample) doped into HEK293T cell proteome (1 μg/μL). Also shown are the effects of YT41S and YT47S tested at a single concentration (100 μM). Samples were treated with heterobifunctional compounds for 2 h, followed by MY-11B (25 μM, 1 h) and analyzed as described in FIG. 2D. Left, representative gel-ABPP results. Lower image is Coomassie blue-stained gel corresponding to ABPP gel shown in upper image. Right, quantification of data presented as mean values±SEM from two independent experiments.
DCAF1 is a multi-domain substrate receptor for CRL4 ligases (FIG. 2A) that has diverse physiological and disease functions, including being co-opted by the HIV-2 virus to promote degradation of the antiviral host protein SAMHD1^27-28. […] We verified the stereo- and site-selective engagement of DCAF1_C1113 by azetidine acrylamides using alkynylated analogues of MY-1A and MY-1B (MY-11A (5) and MY-11B (6), respectively; FIG. 2C). For these experiments, we doped into HEK293T cell lysates a recombinantly expressed and purified form of DCAF1 containing the WD40 domain (amino acids (a.a.'s) 1046-1396), in complex with the CRL4 adaptor protein DDB1^31, and exposed these samples to varying concentrations of MY-11A or MY-11B. After 1 h, we assessed MY-11A and MY-11B engagement of DCAF1 by copper-catalyzed azide-alkyne cycloaddition (CuAAC)^32 with an azide-rhodamine reporter tag followed by SDS-PAGE and in-gel fluorescence scanning^33. […] We used gel-ABPP to quantify an in vitro target engagement value (TE50) of approximately 25 μM (95% C.I.=13-38 μM) for MY-1B labeling of DCAF1 (FIG. 2E, left).

DCAF1-C1113A mutant = target: T2, DCAF1-C1113A mutant (Homo sapiens, UniProt Q9Y4B6, C1113A); experiment: gel-ABPP with recombinant DCAF1-C1113A mutant doped into HEK293T cell proteome; type: binding; details: 1 h
T2 construct: the region used for recombinant protein studies marked in a bracket (a.a.'s 1046-1396); made in house
T2 sequence (Q9Y4B6 1046-1396 C1113A): as the sequence (Q9Y4B6 1046-1396) above, with C68A counted along it
T2 sequence (Q16531 whole entry partner): as the sequence (Q16531 whole entry partner, the tested form may be a part) above
From the text: FIG. 2 that azetidine acrylamides stereo- and site-selectively engage recombinant DCAF1_C1113. (A) Domain map of DCAF1 with the region used for recombinant protein studies marked in a bracket (a.a.'s 1046-1396) and C1113 highlighted in red. (B) Crystal structure of a DCAF1-Vpx complex (pdb: 5AJA). DCAF1 (a.a.'s 1046-1396) is shown in cyan, Vpx is shown in yellow, and C1113, which is located at the DCAF1-Vpx interface is shown in red. (C) Structures of alkyne-modified azetidine acrylamides MY-11A (5) and MY-11B (6). […] MY-11A/B labeling of proteins was visualized by CuAAC conjugation to an azide-rhodamine tag followed by SDS-PAGE and in-gel fluorescence scanning. […] Samples were treated with MY-1A/B for 2 h, followed by MY-11B (25 μM, 1 h) and analyzed as described in (D). Left, quantification of data presented as mean values±SEM from two independent experiments. […]
DCAF1 is a multi-domain substrate receptor for CRL4 ligases (FIG. 2A) that has diverse physiological and disease functions, including being co-opted by the HIV-2 virus to promote degradation of the antiviral host protein SAMHD1^27-28. […] After 1 h, we assessed MY-11A and MY-11B engagement of DCAF1 by copper-catalyzed azide-alkyne cycloaddition (CuAAC)^32 with an azide-rhodamine reporter tag followed by SDS-PAGE and in-gel fluorescence scanning^33. […]

HA-FKBP12 = target: T3, HA-FKBP12 (Homo sapiens, UniProt P62942); experiment: HA-FKBP12 abundance by Western blotting in transfected HEK293T cells; type: cell-based; details: 5 μM, 1 h pre-treatment
T3 construct: expressed in transfected cells; host or cells: HEK293T
T3 sequence (P62942 whole entry): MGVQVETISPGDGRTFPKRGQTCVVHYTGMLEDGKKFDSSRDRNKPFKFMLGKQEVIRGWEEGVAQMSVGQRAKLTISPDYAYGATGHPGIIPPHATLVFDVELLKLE
From the text: (A) Left, western blots showing concentration-dependent effects of YT47R (upper) and YT41R (lower) on FKBP12 abundance in HEK293T cells expressing HA-FBKP12 with or without co-expression of FLAG-DCAF1. Right, quantification of HA-FKBP12 abundance in the indicated experimental groups. (B) Left, western blots showing effects of YT47R versus YT47S (upper) and YT41R versus YT41S (lower) on FKBP12 abundance in HEK293T cells co-expressing HA-FBKP12 and FLAG-DCAF1. Right, quantification of HA-FKBP12 abundance in the indicated experimental groups. (C) Western blots showing effects of YT47R (left blots) and YT41R (right blots) on FKBP12 abundance in HEK293T cells co-expressing HA-FBKP12 and either FLAG-DCAF1-WT or FLAG-DCAF1-C1113A mutant. Quantification of HA-FKBP12 abundance in the indicated experimental groups is shown in the adjacent bar graphs. For (A-C), FKBP12 abundance was determined at 24 h post-treatment with compounds, and data are mean values±SEM for three independent experiments. Statistical significance was calculated with unpaired two-tailed Student's t-tests comparing YT41R/YT47R- and DMSO-treated cells. ***P<0.001, ****P<0.0001.
(A) Left, western blots showing effects of proteasome (MG132) and Neddylation (MLN4924) inhibitors (1 h pre-treatment) on YT47R- and YT41R-dependent degradation of FKBP12 in HEK293T cells co-expressing HA-FBKP12 and FLAG-DCAF1. FKBP12 abundance was determined at 24 h post-treatment with YT47R or YT41R. Right, quantification of HA-FKBP12 abundance in the indicated experimental groups. (B) Left, western blots showing effects of the FKBP12 ligand SLF (20 μM) or DCAF1 ligand MY-11B (1 h pre-treatment with 20 μM SLF or 5 μM MY-11B) on YT47R- and YT41R-dependent degradation of FKBP12 in HEK293T cells co-expressing HA-FBKP12 and FLAG-DCAF1. FKBP12 abundance was determined at 24 h post-treatment with YT47R or YT41R. Right, quantification of HA-FKBP12 abundance in the indicated experimental groups. (C) Left, western blots showing effects of MY-11A or MY-11B (5 μM, 1 h pre-treatment) on YT47R- and YT41R-dependent degradation of FKBP12 in HEK293T cells co-expressing HA-FBKP12 and FLAG-DCAF1. FKBP12 abundance was determined at 24 h post-treatment with YT47R or YT41R. Right, quantification of HA-FKBP12 abundance in the indicated experimental groups. For (A-C), data are mean values±SEM for three-five independent experiments. Statistical significance was calculated with unpaired two-tailed Student's t-tests comparing YT41R/YT47R- and DMSO-treated cells. ****P<0.0001.
Figure S3. Concentration-dependent degradation of FKBP12 by DCAF1-directed electrophilic PROTACs. Top, western blots showing concentration-dependent effects of YT47R and YT41R on FKBP12 abundance in HEK293T cells co-expressing HA-FBKP12 and FLAG-DCAF1. Data are mean values±SEM for four independent experiments. Statistical significance was calculated with unpaired two-tailed Student's t-tests comparing YT41R/YT47R- and DMSO-treated cells. *P<0.1, **P<0.01, ***P<0.001, ****P<0.0001.
Figure S4. Time-dependent degradation of FKBP12 by DCAF1-directed electrophilic PROTACs. Top, western blots showing time-dependent effects of YT47R and YT41R (2 μM each) on FKBP12 abundance in HEK293T cells co-expressing HA-FBKP12 and FLAG-DCAF1. Data are mean values±SEM for four independent experiments. Statistical significance was calculated with unpaired two-tailed Student's t-tests comparing YT41R/YT47R- and DMSO-treated cells. ****P<0.0001.
We next treated HEK293T cells co-transfected with FLAG epitope-tagged full length DCAF1 (a.a.'s 1-1507) and HA (hemagglutinin) epitope-tagged FKBP12 with a concentration range of YT41R or YT47R and, after 24 h, measured HA-FKBP12 abundance by Western blotting.

[2] = tested on: ternary complex of FKBP12 and DCAF1; experiment: co-immunoprecipitation of DCAF1 with HA-FKBP12 in HEK293T cells (ternary complex); type: cell-based; details: FLAG-DCAF1-WT, 5 μM, 2 h, in the presence of MG132 (10 μM)
Experimental: (A) Left, western blots showing effects of YT47R and YT47S on the immunoprecipitation (IP) of FLAG-DCAF1-WT or FLAG-DCAF1-C1113A with HA-FKBP12 in HEK293T cells co-expressing these proteins. Cells were treated with YT47R or YT47S (5 μM) for 2 h in the presence of MG132 (10 μM) prior to lysis and IP with an anti-HA antibody and western blotting for the indicated proteins (DCAF1, FKBP12, and ubiquitinated protein). Right, bar graphs quantifying DCAF1 (top) and ubiquitination (Ub) (bottom) in the indicated IP groups. (B) Left, western blots showing effects of YT47R and YT47S on the IP of endogenous DCAF1 with HA-FKBP12 in HEK293T cells expressing HA-FKBP12. Cells were treated with YT47R or YT47S (5 μM) for 2 h in the presence of MG132 (10 μM) prior to lysis and IP with an anti-HA antibody and western blotting for the indicated proteins (DCAF1, FKBP12). Right, bar graph quantifying DCAF1 in the indicated IP groups. For (A, B), data are mean values±SEM for three independent experiments. Statistical significance was calculated with unpaired two-tailed Student's t-tests comparing YT41R/YT47R- and DMSO-treated cells. **P<0.01, ****P<0.0001. (C) MS-ABPP quantification of IA-DTB labeling of the indicated cysteines in DCAF1 from FLAG-DCAF1-WT-expressing HEK293T cells treated with the indicated concentrations of YT47R (3 h) relative to cells treated with DMSO. Data represent average values±SEM from four independent experiments. Statistical significance was calculated with unpaired two-tailed Student's t-tests comparing compound to DMSO treated cells. *P<0.1.
Finally, we investigated whether electrophilic PROTACs induce a stable ternary complex of FKBP12 with DCAF1 and promote FKBP12 ubiquitination. […] A ternary complex was not observed in cells expressing the DCAF1-C1113A mutant (FIG. 6A), supporting that YT47R induces this complex through site-specifically reacting with C1113. […] In considering possible reasons why this ternary complex formation with endogenous DCAF1 was insufficient to support the degradation of recombinantly expressed FKBP12 (FIG. 4A), we speculate that our current PROTACs (YT41R, YT47R) may require further improvements in cellular properties to enable robust targeted protein degradation mediated by physiological concentrations of DCAF1.

Row | SMILES | labeling of recombinant DCAF1 by alkyne probe ([1]; 1 h, DCAF1-WT, CuAAC azide-rhodamine, in-gel fluorescence) | labeling of DCAF1-C1113A mutant by alkyne probe (DCAF1-C1113A mutant) | effect on YT41R/YT47R-mediated degradation of HA-FKBP12 (HA-FKBP12) | inhibition of MY-11B probe reactivity with recombinant DCAF1 ([1]; 2 h, then MY-11B 25 μM 1 h, YT41S and YT47S at single concentration 100 μM) | ternary complex of FKBP12 and DCAF1 [2]
1 | C#Cc1ccc([C@H]2CN(C(=O)C=C)[C@H]2C(=O)Nc2cccc3cccnc23)cc1 [MY-11B, (2R,3S)-1-acryloyl-3-(4-ethynylphenyl)-N-(88uinoline-8-yl) azetidine-2-carboxamide] | much greater concentration-dependent labeling | blocked by mutation of C1113 to alanine | blocked |  | 
2 | C=CC(=O)N1C[C@@H](c2ccc(C(=O)NCCOCCOCCOCCNC(=O)COc3cccc([C@@H](CCc4ccc(OC)c(OC)c4)OC(=O)[C@@H]4CCCCN4C(=O)C(=O)C(C)(C)CC)c3)cc2)[C@H]1C(=O)Nc1cccc2cccnc12 [YT47S] |  |  |  | did not impair | not
